Source: a melting point compilation (Tetko et al.; mined from patent text by program, amines drawn as free bases though some values may be those of a salt)

SMILES	melting point [°C]
CC1=C(C(=O)OCC=Cc2ccccc2)C(c2ccccc2C(F)(F)F)c2c(ccnc2OC(C)C)N1 (configuration not stated)	164 to 166
CC(C)(C)OC(=O)NC[C@H]1CN(c2ccc3c(c2)CC(C(C)(C)C)N3C=O)C(=O)O1 (some centres not stated)	153 to 161
C=CCN1CCCN(c2ccc(Cl)cc2C)C1=S	101 to 103
COc1ccccc1[C@H](C)C(=O)N1C[C@@H]2[C@H](F)CCC(c3ccccc3)(c3ccccc3)[C@@H]2C1	195
CN(C)c1nc(N)c2ccccc2n1	141 to 142
COC(=O)c1ccc(C(=O)CC(=O)OCc2ccccc2)cc1	71
Cn1c(C(F)(F)F)cc(=O)n(-c2cc(OCc3ccc(F)cc3)c(Cl)cc2F)c1=O	174 to 177
CCCc1nc2c(N)nc3ccccc3c2n1CCS(C)(=O)=O	212 to 214
CCOC(=O)c1cncc(O)c1	150
Cc1cc(NS(=O)(=O)c2ccc(Cl)cc2)cc(C)c1S(=O)(=O)C[N+](=O)[O-]	160 to 162
CC(C(=O)O)c1ccc(N=c2sccn2C)cc1 (configuration not stated)	130 to 132
CCCCCCOc1ccc(C(=O)c2cccc(C(=O)O)c2)c(C)c1	136 to 138
CC(=O)Nc1cc(C)c(N)cc1C	133 to 135
O=[N+]([O-])c1cccc(-c2ccccc2O)c1	99.5 to 100
CC(C)c1ccc(CNc2ccc(S(=O)(=O)O)cc2)cc1	> 275
O=C(NC1CCCCC1)C12CC3CC(CC(C3)C1)C2	199 to 200
BrCc1ccc2nc(-c3ccccc3)ccc2c1	126 to 127
CC(C)(C)OC(=O)COC1=CC(=O)c2ccccc2C1=O	120 to 122
O=C(Nc1ccc(Cl)cn1)c1cc(F)ccc1NCC1CCNCC1	230 to 233
FC(F)c1ccc2c(c1)C(Cc1ccncc1)(Cc1ccncc1)c1ccccc1-2	> 300
N#Cc1ccc(C(OCC2OC(n3ccc(=O)[nH]c3=O)CC2O)(c2ccccc2)c2ccccc2)cc1 (configuration not stated)	92 to 95
O=C1NC(=O)C2(CCc3cc(F)ccc32)N1 (racemic)	> 260
COc1ccc(CCN(O)C(=O)C(N)=O)cc1OC	143 to 144
COc1cccc(-c2cc(=O)c3cccc(C(=O)Nc4ccc(CCCCN5CCc6cc(OC)c(OC)cc6C5)cc4)c3o2)c1	152
OCc1ccccc1NCc1c(O)ccc2c1CCCO2	151 to 153
O=C(O)c1ccc(Cl)cc1C(=O)NCCCCc1cccnc1	152 to 154

SMILES	melting point [°C]
COc1ccc(CCNS(=O)(=O)Cc2ccc3[nH]cc(CCN)c3c2)cc1	128 to 129
O=C(O)C1Cc2ccccc2C1	130
CCCCCCCCC(CO)CO	48 to 51
COc1cc(Nc2nccc(-c3ccc(NCCN4CCCC4)nc3)n2)cc(OC)c1OC	165 to 166
Cc1nnc(-c2ccc3occ(-c4ccc(C(=O)N5CCOCC5)c(F)c4)c3c2)o1	167 to 168
OCc1cc(N2CCCC2)ncn1	136 to 139
CCN(CC)CC(O)CNC(=O)Cn1ncc(-c2ccccc2)c1-c1ccccc1 (configuration not stated)	70 to 72
CCN(CC)C(=O)Oc1cc(-c2cccc(Cl)c2)nc2ccccc12	83
ClCc1ccc(-c2ccc(CCl)cc2)cc1	137 to 138
Cc1cccc(C)c1C1C(=O)CC(C)(C)CC1=O	177 to 186
Nn1cc(F)c(=O)[nH]c1=O	196 to 199
C=C(Br)CN1Cc2cccc3[nH]c(=O)n(c23)CC1C (configuration not stated)	150
COc1ccc(C(=O)C2C(=O)N(C(N)=O)c3ccc(Cl)cc32)s1 (configuration not stated)	180 to 182
CC(C)c1cccc(C(C)C)c1NS(=O)(=O)CC(=O)O	153 to 155
Cc1onc(-c2ccc(-c3cscn3)cc2)c1-c1ccc(S(N)(=O)=O)cc1	112 to 115
CN(C)S(=O)(=O)c1ccc(Oc2ccc(S(C)(=O)=O)cc2)cc1	128 to 130
CC1(c2cc(/C=C/c3ccc(C(=O)O)cc3)ccc2O)CCCCC1	229
CC1(C)CCC(C)(C)c2cc(-c3cc(-c4ccc(C(=O)O)cc4)ccc3-c3ccccc3)ccc21	287 to 288
CC(C)COc1c(NCCCBr)c(=O)c1=O	70 to 71
CCCCOc1ccc(CC(CC(=O)NO)S(=O)(=O)c2ccc(OC)cc2)cc1 (configuration not stated)	55 to 60
CCCn1c(N)c(NC(=O)C2(NC(=O)C(F)(F)F)CCCC2)c(=O)n(CCC)c1=O	203 to 204
O=c1oc2c(ccc3ccccc32)c2c1CNCC2	227 to 230
CCOC(=O)c1[nH]c(CC)c(C)c1CC(C)C	53 to 55
COc1cc(C(=O)O)ccc1-c1nc2cc3c(cc2[nH]1)NC(=O)C3(C)C	315 to 319
O=[N+]([O-])c1cnc2ccccc2c1NCC12CCCN1CCC2	155 to 158
COc1cc2c(c(OC(C)=O)c1)C1CCC3(C)C(OC)CCC3C1CC2 (configuration not stated)	81 to 83

SMILES	melting point [°C]
O=C1c2ccc([N+](=O)[O-])cc2C(=O)N1c1ccc(C2(c3ccc(N4C(=O)c5ccc([N+](=O)[O-])cc5C4=O)cc3)c3ccccc3-c3ccccc32)cc1	360 to 363
CCCCCCCCCCCCCCCCc1cc(S)c(Sc2nnc(SCC(=O)O)s2)cc1O	71 to 76
CCOC(=O)C1=C(COCc2nc(C)cs2)NC(C)=C(C(=O)OC)C1c1ccccc1Cl (configuration not stated)	107 to 110
COC(=O)C=Cc1ccc(Br)cc1	80
O=c1[nH]c(=O)n(CCCBr)c2ccccc12	159 to 170
O=C(O)c1ncccc1OCc1ccc(Cl)cc1	144
O=C(O)CCCn1c(=O)n2n(c1=O)C(C(=O)O)C=CC2 (configuration not stated)	130
O=C(O)Cc1cccc(C(=O)c2ccc(Cl)cc2)c1[N+](=O)[O-]	164 to 165
Cc1cc2[nH]cc(CSCCN3CC=C(c4ccccc4)CC3)c2cc1C	123 to 124
CS(=O)(=O)c1ccc(C(CC2CCCC2)C(=O)Nc2ccc(Br)cn2)cc1[N+](=O)[O-] (configuration not stated)	80 to 83
CO[C@@H]1CNCC[C@H]1NC(=O)c1cccc(C(F)(F)F)c1 (relative stereo)	100
CN1CCC(OC2c3ccccc3CCn3cc(I)nc32)CC1 (configuration not stated)	126
Cc1cc(O)n2nc(CN)nc2n1	204 to 207
CCCc1nc2c(N)nc3cc(OCc4ccccc4)ccc3c2s1	175 to 178
COc1cc2oc(C(=O)O)cc2cc1Cl	283
Cc1c(NC(=O)CC(C)(C)C)c(C)c(C(C)(C)O)c2c1C(c1ccc(C(C)C)cc1)CO2 (configuration not stated)	133 to 134
COC(=O)C1CC(=O)C(CC(=O)O)C1C[N+](=O)[O-] (single isomer, unassigned; (-))	111 to 112
O=C1NC(=O)C2(CCCN3CCN(c4ccc(Cl)cc4)CC3)C=CC=CC12 (configuration not stated)	120
Cc1cccc(CC(=O)c2ccnc(-c3ccc(C(=O)NC4CCOCC4)cc3)c2)n1	210
c1ccc(Nc2nc[nH]c3ncc(-c4ccccc4)c2-3)cc1	208 to 209
CCOC(=O)Cc1ccccc1Oc1ccc(C)cc1	75
OC(c1ccccc1)(c1ccccc1)C(F)(F)C(F)(F)F	82 to 83
CCCNC(=S)n1nc(Oc2c(Cl)cc(C(F)(F)F)cc2Cl)cc1C	71 to 73
CCCCCc1ccc(OC(=O)c2ccc(O)cc2Cl)cc1	149 to 151
CCOC(=O)C(=O)CC(=O)c1cn(Cc2ccccc2)c2ccccc2c1=O	141 to 142
Nc1ccncc1C(=NO)c1ccccc1F	212 to 214

SMILES	melting point [°C]
Oc1ccc(I)c(-c2cc(O)ccc2I)c1	181 to 182
O=C(OCCCCl)c1ccc([N+](=O)[O-])cc1[N+](=O)[O-]	40
COc1ccc(Nc2c([N+](=O)[O-])cc([N+](=O)[O-])c(Cl)c2C(=O)O)cc1	241 to 245
Cc1cc(O)c(SCCc2ccccc2)c(=O)o1	100 to 101
N#Cc1c(N2CCCCC2)cc(-c2ccc3ccc4cccc5ccc2c3c45)c2c1C(=O)c1ccccc1-2	180 to 182
COc1ccc2c(c1)Sc1c(cc(OC)c(OC(C)=O)c1Br)N2	201 to 203
CC(=O)c1ccc(CCCOc2c(C)cc(N3CN=C(C(F)F)O3)cc2C)nn1	95 to 96
CCOC(=O)c1nc2c(C)nn(CC)c2nc1OCCC(C)C	59 to 61
BrC(Br)Cc1ccc(OCc2ccccc2)cc1	97 to 98
C=Cc1cnc2c(NC(=O)c3c(Cl)cccc3Cl)cccc2c1CCl	184 to 186
COC(=O)COc1cccc2c1CCC(Br)C2=O (configuration not stated)	76 to 77
Cc1c(-c2ccc(C(=O)O)cc2)ccc(-c2ccccc2)c1-c1ccc2c(c1)C(C)(C)CCC2(C)C	130 to 132
CCn1cc(C(=O)O)c(=O)c2cc(F)c(C(=O)CBr)c(F)c21	213 to 215
O=Cc1c(OCc2ccccc2)cccc1C1OCCCO1	85 to 87
CC(C)C1(C)N=C2c3ncccc3C(=O)N2C1=O (configuration not stated)	125 to 128
CC(C)(C)OC(=O)C(C1NC(C(=O)OCc2ccccc2)C2(CCN(c3ccccc3)CC2)S1)N1C(=O)c2ccccc2C1=O (configuration not stated)	184 to 185
CCC(Oc1ccc(-n2nnc3cc(C(F)(F)F)ccc32)cc1)C(=O)O (configuration not stated)	122 to 125
CC(=O)NC1(c2ccccc2Cl)CCC=CC1=O (configuration not stated)	144 to 145
COc1ccc([N+](=O)[O-])c(C#N)c1CBr	137 to 138
CCCCc1nc2cccc(CO)c2n1Cc1ccc(-c2ccccc2-c2nnn[nH]2)cc1	152 to 153
CCCNC(=O)c1ccc2c(c1)N(C(C)CN(C)CC)c1ccccc1S2 (racemic)	100
CCCCC(C(=O)O)c1cccc(Oc2ccccc2C)c1O (configuration not stated)	83 to 84
c1ccc2cc(OCCc3c[nH]cn3)ccc2c1	157 to 158
CC(C)C[C@H](NC(=O)OCc1ccccc1)C(=O)N[C@@H](Cc1ccccc1)C(=O)CS	171
